Data: patent US20110152267A1, “Compositions and Methods for Treating Hyperproliferative Disorders” (Texas Tech University System, priority 2009, published 2011)

Experiments:
Assay type in all cases: cell-based, human
Conditions in all cases: 96 h
[1] = system: NCI-H-1792 lung adenocarcinoma cell line; assay: DIMSCAN cytotoxicity, fenretinide + L-threo-sphinganines 3:1 (Example B12)
Method: (§1) Cytotoxicity Assay—Once again, cytotoxicity is determined using the DIMSCAN assay system (R. Proffitt et al., Cytometry 24, 204-213 (1996); T. Frgala et al., Mol Cancer Ther. 6:886-97, 2007). The system employs digital imaging microscopy to quantify viable cells, which selectively accumulate fluorescein diacetate to become brightly fluorescent. The system is capable of measuring cytotoxicity over a 4-5 log dynamic range by quenching the residual fluorescence of dead and dying cells with eosin Y and quantifying the total fluorescence of viable cells using digital thresholding. Measured fluorescence is directly proportionate to the number of viable cells. A comparison of the total fluorescence of a drug-treated cell population to the fluorescence of a similar number of untreated cells yields a survival fraction. In brief, 2000 to 10,000 cells/well (depending on size and growth rates) are replicate plated into 60 wells of a 96-well tissue culture plate in 0.1 mL of whole medium and allowed to attach overnight. Drug(s) are then added in 0.05 mL of whole medium to the final concentrations indicated. Drugs (fenretinide, and various chain length L-threo-sphinganines) were tested both as single agents and in a 3:1 ratio of fenretinide:sphinganine. C18-L-threo-sphinganine, or “safingol,” was also tested and results shown for reference. There are 12 wells treated per drug concentration. Twelve wells receive drug vehicle-only to the appropriate final concentration and serve as controls for the plate. Cells are incubated for 96 hours at 37° C. in ambient air with 5% CO2. Fluorescein diacetate is then added to each well in 0.05 mL media to a final concentration of 8 microgram/mL. Cells are incubated for a further 15 minutes at 37° C. and 0.03 mL of 0.5% eosin Y is added to each well. Total fluorescence of viable cells is then measured by digital imaging microscopy. Results were graphed as the ratio of the fluoresecence of drug-treated wells to non-drug treated control wells (i.e., Survival Fraction). All tests were performed at least twice. Representative results are shown.
(§2) The Combination Index (CI) is a term to describe mathematical modeling of the pharmacologic effects on cytotoxicity (cell death) of two drugs in combination based. Cytotoxic “synergy” is defined as a cell death affect which is greater than would be expected from a simple product of the single agent cytotoxicities alone (i.e. an “additive” effect). By Chou-Talalay analysis, a CI<0.9 on a Fraction Affected (“Fa”, i.e. fraction of cells killed) indicates synergy, with smaller numbers indicating greater synergy; a CI of 0.9-1.1 signifies an additive or near-additive effect; and a CI>1.1 means the drug combination is antagonistic.
Fenretinide and L-threo-sphinganines tested in human lung adenocarcinoma (lung cancer) cell line, NCI-H-1792.

[2] = system: OVCAR-8 ovarian adenocarcinoma cell line; assay: DIMSCAN cytotoxicity, fenretinide + L-threo-sphinganines 3:1 (Example B15); design: key to CI (Combination Index): Chou-Talalay CI: <0.9 synergy, 0.9-1.1 additive, >1.1 antagonism
Method: as §1, §2
Fenretinide and L-threo-sphinganines tested in human ovarian adenocarcinoma (ovarian cancer) cell line, OVCAR-8.

[3] = system: SJ-G2 Glioblastoma cell line; assay: DIMSCAN cytotoxicity, fenretinide + L-threo-sphinganines 3:1 (Example B8)
Method: as §1, §2
Fenretinide and L-threo-sphinganines tested in human Glioblastoma (brain cancer) cell line, SJ-G2.

[4] = system: A-172 Glioblastoma multiforme cell line; assay: DIMSCAN cytotoxicity, fenretinide + L-threo-sphinganines 3:1 (Example B4); design: key to CI (Combination Index): Chou-Talalay CI: <0.9 synergy, 0.9-1.1 additive, >1.1 antagonism
Method: as §1, §2
Fenretinide and L-threo-sphinganines tested in human Glioblastoma multiforme (brain cancer) cell line, A-172.

[5] = system: T98G Glioblastoma multiforme cell line; assay: DIMSCAN cytotoxicity, fenretinide + L-threo-sphinganines 3:1 (Example B6)
Method: as §1, §2
Fenretinide and L-threo-sphinganines tested in human Glioblastoma multiforme (brain cancer) cell line, T98G.

[6] = system: HT-29 colorectal adenocarcinoma cell line; assay: DIMSCAN cytotoxicity, fenretinide + L-threo-sphinganines 3:1 (Example B10)
Method: as §1, §2
Fenretinide and L-threo-sphinganines tested in human colorectal adenocarcinoma (colon cancer) cell line, HT-29.

[7] = 4-HPR 1.5 μM + L-threo-sphinganine 0.5 μM
[8] = 4-HPR 3 μM + L-threo-sphinganine 1 μM
[9] = 4-HPR 6 μM + L-threo-sphinganine 2 μM
[10] = 4-HPR 9 μM + L-threo-sphinganine 3 μM

CCCCCCCCCCCCCC[C@H](O)[C@@H](N)CO [C17, (2S,3S)-2-amino-1,3-heptadecanediol]
CI (Combination Index) [1, 7]: 1.1
Fa (fraction affected) [1, 7]: 0.112
CI (Combination Index) [1, 8]: 1.0
Fa (fraction affected) [1, 8]: 0.661
CI (Combination Index) [1, 9]: 0.9
Fa (fraction affected) [1, 9]: 0.974
CI (Combination Index) [1, 10]: 1.0
Fa (fraction affected) [1, 10]: 0.993
CI (Combination Index) [2, 7]: 0.2
Fa (fraction affected) [2, 7]: 0.467
CI (Combination Index) [2, 8]: 0.4
Fa (fraction affected) [2, 8]: 0.519
CI (Combination Index) [2, 9]: 0.5
Fa (fraction affected) [2, 9]: 0.676
CI (Combination Index) [2, 10]: 0.4
Fa (fraction affected) [2, 10]: 0.903
CI (Combination Index) [3, 7]: 0.6
Fa (fraction affected) [3, 7]: 0.462
CI (Combination Index) [3, 8]: 0.4
Fa (fraction affected) [3, 8]: 0.874
CI (Combination Index) [3, 9]: 0.6
Fa (fraction affected) [3, 9]: 0.928
CI (Combination Index) [3, 10]: 0.8
Fa (fraction affected) [3, 10]: 0.941
CI (Combination Index) [4, 7]: 1.4
Fa (fraction affected) [4, 7]: 0.232
CI (Combination Index) [4, 8]: 1.4
Fa (fraction affected) [4, 8]: 0.529
CI (Combination Index) [4, 9]: 0.2
Fa (fraction affected) [4, 9]: 0.996
CI (Combination Index) [4, 10]: >0.1
Fa (fraction affected) [4, 10]: 1.000
CI (Combination Index) [5, 7]: 1.7
Fa (fraction affected) [5, 7]: 0.447
CI (Combination Index) [5, 8]: 0.3
Fa (fraction affected) [5, 8]: 0.887
CI (Combination Index) [5, 9]: 0.3
Fa (fraction affected) [5, 9]: 0.944
CI (Combination Index) [5, 10]: 0.2
Fa (fraction affected) [5, 10]: 0.980
CI (Combination Index) [6, 7]: 1.1
Fa (fraction affected) [6, 7]: 0.112
CI (Combination Index) [6, 8]: 0.8
Fa (fraction affected) [6, 8]: 0.661
CI (Combination Index) [6, 9]: 0.6
Fa (fraction affected) [6, 9]: 0.974
CI (Combination Index) [6, 10]: 0.5
Fa (fraction affected) [6, 10]: 0.993

CCCCCCCCCCCCCCC[C@H](O)[C@@H](N)CO [C18, (2S,3S)-2-amino-1,3-octadecanediol, reference compound]
CI (Combination Index) [1, 7]: 1.2
Fa (fraction affected) [1, 7]: 0.243
CI (Combination Index) [1, 8]: 0.8
Fa (fraction affected) [1, 8]: 0.756
CI (Combination Index) [1, 9]: 0.6
Fa (fraction affected) [1, 9]: 0.983
CI (Combination Index) [1, 10]: 0.4
Fa (fraction affected) [1, 10]: 0.999
CI (Combination Index) [2, 7]: 1.5
Fa (fraction affected) [2, 7]: 0.122
CI (Combination Index) [2, 8]: 1.5
Fa (fraction affected) [2, 8]: 0.202
CI (Combination Index) [2, 9]: 0.7
Fa (fraction affected) [2, 9]: 0.536
CI (Combination Index) [2, 10]: 0.5
Fa (fraction affected) [2, 10]: 0.761
CI (Combination Index) [3, 7]: 0.7
Fa (fraction affected) [3, 7]: 0.437
CI (Combination Index) [3, 8]: 0.7
Fa (fraction affected) [3, 8]: 0.728
CI (Combination Index) [3, 9]: 0.5
Fa (fraction affected) [3, 9]: 0.950
CI (Combination Index) [3, 10]: 0.6
Fa (fraction affected) [3, 10]: 0.958
CI (Combination Index) [4, 7]: 1.3
Fa (fraction affected) [4, 7]: 0.233
CI (Combination Index) [4, 8]: 0.5
Fa (fraction affected) [4, 8]: 0.803
CI (Combination Index) [4, 9]: 0.3
Fa (fraction affected) [4, 9]: 0.956
CI (Combination Index) [4, 10]: 0.1
Fa (fraction affected) [4, 10]: 0.993
CI (Combination Index) [5, 7]: 0.786
Fa (fraction affected) [5, 7]: 0.657
CI (Combination Index) [5, 8]: 1.316
Fa (fraction affected) [5, 8]: 0.701
CI (Combination Index) [5, 9]: 0.767
Fa (fraction affected) [5, 9]: 0.906
CI (Combination Index) [5, 10]: 0.023
Fa (fraction affected) [5, 10]: 0.999
CI (Combination Index) [6, 7]: 0.9
Fa (fraction affected) [6, 7]: 0.243
CI (Combination Index) [6, 8]: 0.7
Fa (fraction affected) [6, 8]: 0.756
CI (Combination Index) [6, 9]: 0.5
Fa (fraction affected) [6, 9]: 0.983
CI (Combination Index) [6, 10]: 0.3
Fa (fraction affected) [6, 10]: 0.999

CCCCCCCCCCCCCCCC[C@H](O)[C@@H](N)CO [C19, (2S,3S)-2-amino-1,3-nonadecanediol]
CI (Combination Index) [1, 7]: 1.1
Fa (fraction affected) [1, 7]: 0.138
CI (Combination Index) [1, 8]: 1.1
Fa (fraction affected) [1, 8]: 0.736
CI (Combination Index) [1, 9]: 1.2
Fa (fraction affected) [1, 9]: 0.965
CI (Combination Index) [1, 10]: 0.9
Fa (fraction affected) [1, 10]: 0.993
CI (Combination Index) [2, 7]: 0.1
Fa (fraction affected) [2, 7]: 0.787
CI (Combination Index) [2, 8]: 0.1
Fa (fraction affected) [2, 8]: 0.881
CI (Combination Index) [2, 9]: 0.1
Fa (fraction affected) [2, 9]: 0.943
CI (Combination Index) [2, 10]: 0.1
Fa (fraction affected) [2, 10]: 0.978
CI (Combination Index) [3, 7]: 0.7
Fa (fraction affected) [3, 7]: 0.389
CI (Combination Index) [3, 8]: 0.8
Fa (fraction affected) [3, 8]: 0.700
CI (Combination Index) [3, 9]: 0.6
Fa (fraction affected) [3, 9]: 0.975
CI (Combination Index) [3, 10]: 0.7
Fa (fraction affected) [3, 10]: 0.983
CI (Combination Index) [4, 7]: 84.4
Fa (fraction affected) [4, 7]: 0.086
CI (Combination Index) [4, 8]: 8.1
Fa (fraction affected) [4, 8]: 0.578
CI (Combination Index) [4, 9]: >0.1
Fa (fraction affected) [4, 9]: 0.998
CI (Combination Index) [4, 10]: >0.1
Fa (fraction affected) [4, 10]: 1.000
CI (Combination Index) [5, 7]: 0.9
Fa (fraction affected) [5, 7]: 0.584
CI (Combination Index) [5, 8]: 1.1
Fa (fraction affected) [5, 8]: 0.704
CI (Combination Index) [5, 9]: 0.1
Fa (fraction affected) [5, 9]: 0.990
CI (Combination Index) [5, 10]: 0.1
Fa (fraction affected) [5, 10]: 0.995
CI (Combination Index) [6, 7]: 1.2
Fa (fraction affected) [6, 7]: 0.138
CI (Combination Index) [6, 8]: 1.0
Fa (fraction affected) [6, 8]: 0.736
CI (Combination Index) [6, 9]: 0.8
Fa (fraction affected) [6, 9]: 0.965
CI (Combination Index) [6, 10]: 0.8
Fa (fraction affected) [6, 10]: 0.993

CCCCCCCCCCCCCCCCC[C@H](O)[C@@H](N)CO [C20, (2S,3S)-2-amino-1,3-icosanediol]
CI (Combination Index) [1, 7]: 0.9
Fa (fraction affected) [1, 7]: 0.287
CI (Combination Index) [1, 8]: 0.7
Fa (fraction affected) [1, 8]: 0.852
CI (Combination Index) [1, 9]: 0.7
Fa (fraction affected) [1, 9]: 0.972
CI (Combination Index) [1, 10]: 0.5
Fa (fraction affected) [1, 10]: 0.998
CI (Combination Index) [2, 7]: 0.5
Fa (fraction affected) [2, 7]: 0.259
CI (Combination Index) [2, 8]: 0.6
Fa (fraction affected) [2, 8]: 0.366
CI (Combination Index) [2, 9]: 0.8
Fa (fraction affected) [2, 9]: 0.453
CI (Combination Index) [2, 10]: 0.2
Fa (fraction affected) [2, 10]: 0.956
CI (Combination Index) [3, 7]: 0.9
Fa (fraction affected) [3, 7]: 0.408
CI (Combination Index) [3, 8]: 0.8
Fa (fraction affected) [3, 8]: 0.773
CI (Combination Index) [3, 9]: 1.1
Fa (fraction affected) [3, 9]: 0.896
CI (Combination Index) [3, 10]: 0.2
Fa (fraction affected) [3, 10]: 0.999
CI (Combination Index) [4, 7]: 2.8
Fa (fraction affected) [4, 7]: 0.039
CI (Combination Index) [4, 8]: 1.0
Fa (fraction affected) [4, 8]: 0.594
CI (Combination Index) [4, 9]: 0.6
Fa (fraction affected) [4, 9]: 0.983
CI (Combination Index) [4, 10]: >0.1
Fa (fraction affected) [4, 10]: 1.000
CI (Combination Index) [5, 7]: 2.4
Fa (fraction affected) [5, 7]: 0.397
CI (Combination Index) [5, 8]: 0.2
Fa (fraction affected) [5, 8]: 0.989
CI (Combination Index) [5, 9]: >0.1
Fa (fraction affected) [5, 9]: 1.000
CI (Combination Index) [5, 10]: >0.1
Fa (fraction affected) [5, 10]: 1.000
CI (Combination Index) [6, 7]: 0.8
Fa (fraction affected) [6, 7]: 0.287
CI (Combination Index) [6, 8]: 0.6
Fa (fraction affected) [6, 8]: 0.852
CI (Combination Index) [6, 9]: 0.6
Fa (fraction affected) [6, 9]: 0.971
CI (Combination Index) [6, 10]: 0.4
Fa (fraction affected) [6, 10]: 0.998
